Results taken from patent publication US20260151376A1, “COMBINATION THERAPY FOR THE TREATMENT OF CANCER” (INSTITUT NATIONAL DE LA SANTÉ ET DE LA RECHERCHE MÉDICALE, priority 2022, published 2026).

What was measured:
IFNγ = assay: Intra-tumoral proteins analysis by western blot and ELISA: IFNγ; format: in vivo, mice
Method: FIG. 2: HA15 induces in vivo the expression of CHOP and IFNg in mice tumors: tumors were harvested from the mice after HA15 treatment and crushed into lysis buffer to get protein lysates. (A). Tumor lysates were analyzed by western blotting with CHOP, IFNγ and HSP90 antibodies. Densitometric analyses were then performed on the radiogram presented here thanks to the ImageJ (Fiji) program. The signal intensity of the target protein is weighted by that of the HSP90 control. (B) The intra-tumoral […] was dosed in the lysates by a Mouse IFN-g ELISA kit. Mann-Whitney test was performed to compare statistically the protein expressions in the two different groups.
Pieces of tumor were crushed thanks to the “Precellys 24 Tissue Homogenizer” into CK Mix Tubes (#P000918-LYSK0, Bertin Technologies) in presence of protein lysis buffer containing 50 mmol/l Tris-HCl (pH 7.5), 15 mmol/l, NaCl, 1% Triton X-100, and 1× protease and phosphatase inhibitors. Tumor lysates were then centrifuged to remove cells debris.
For western Blot, tumor lysates are prepared in Laemmli buffer. Briefly, tumor lysates (30 μg) were separated by SDS-PAGE, transferred onto a polyvinylidene fluoride membrane (Millipore), and then exposed to the appropriate antibodies. The antibody directed against IFN-gamma was purchased from Abcam (ab133566). Proteins were visualized with the ECL System from Amersham. […]

CT26 tumors [1] = assay: CT26 allografts experiment, HA15 and anti-PD1 (Example 1); format: in vivo; conditions: single treatment; CT26 allograft in BALB/c mice; HA15 0.7 mg/mouse/day IP; anti-PD1 4 injections of 0.125 mg/mouse
Method: FIG. 1: CT26 cells (5.104) are injected subcutaneously in Balb/C mice. As soon as the tumors reach 50 mm^3, mice are randomly distributed into different experimental groups and treated daily (intraperitoneal) with Vehicle or HA15 (35 mg/kg) and twice a week during two weeks with anti-PD1 (6.25 mg/kg) or PBS. A: Individual tumor growth curves. B: Survival curves. Mice are euthanized when their tumor reach 800 mm^3. A log-rang (Mantel Cox) test was performed to compare statistically the survival in the different experimental groups. Ns=non-significant, *: p≤0.05, **: p≤0.01, ***: p≤0.001.
CT26 Allografts Experiment Female BALB/cOlaHsd mice were obtained at 5 weeks of age from Envigo Laboratory. One week later, these mice were inoculated subcutaneously with CT26 cells (5×10^5 cells/mouse). As soon as its tumor reach 50 mm^3, each mouse was allocated in the different experimental group following a randomization table created with the “Graphpad Quickcalcs” tool (7 mice/group). […] Tumor volumes were determined using the equation Volume=(Length×(Width)^2)/2. […]

CHOP = assay: Intra-tumoral proteins analysis by western blot: CHOP; format: in vivo, mice
CT26 tumors [2] = assay: CT26 tumor model, oral HA15 and anti-PDL1 (Example 2); format: in vivo, mice
Method: Mice: A total of 60 female BALB/C mice aged 5 weeks and weighted between 15-19 g, were ordered from Envigo. These had one week of acclimatation in C3M animal facility. Animals were housed in IVC cages (5 per cage) with individual mice identified by ear tag. All animals were allowed free access to a standard certified commercial diet and sanitised water during the study. The holding room was maintained under standard conditions: 18-24° C., 55-70% humidity and a 12h light/dark cycle. One week before dosing start, 2 animals died while blood sampling.
58 Mice were randomly assigned into the following treatment groups:
Cells: CT26 cell lines were thawed 2 weeks before mice arrival. These were cultured in RPMI medium supplemented with 10% FBS, 1% Penicillin/streptomycin and 2% sodium pyruvate. Cells were expanded 48 hrs prior to the subcutaneous injection in 5×T175 flasks at concentration of 0.8×10^6 cells. This concentration allows cells to be 70-80% confluency at the day of the injection. Briefly, cells were washed with PBS, detached from the flasks using 3 ml of trypsin, collected with RPMI medium and centrifuged at 300 g for 5 min. These were then resuspended in PBS, counted and 0.5×10^6 cells/mouse ([…] in total for 80 mice) were taken and re-centrifuged to be resuspended in 100 μl/mouse of PBS ready to be subcutaneously injected (8 ml in total for 80 mice). […]

[3] = liver, after HA15 treatment (data not shown)

`CC(=O)Nc1nc(-c2cccc(NS(=O)(=O)c3cccc4c(N(C)C)cccc34)c2)cs1` [HA15] was tested, and the IFNγ expression (IFNγ; CT26 tumors harvested after HA15 treatment, western blot and ELISA) was “induces”, the IFNγ expression (IFNγ; [3]) was “no variation” and the complete response (CT26 tumors [1]) was 14%. For the same compound, the CHOP expression (CHOP; CT26 tumors harvested after HA15 treatment, western blot) was “induces”, the CHOP expression (CHOP; [3]) was “no variation” and the tumor volume (CT26 tumors [2]; after 13 days of daily oral administration, statistically significant compared with vehicle group) was “decreased”. For the same compound, the tumor weight (CT26 tumors [2]; after mice termination at day 13, confirms the reduction in tumor growth) was “confirmed”.
